Source: article PMC9376946, “Peptide-RNA Coacervates as a Cradle for the Evolution of Folded Domains” (Journal of the American Chemical Society, 2022)

How the values were obtained:
PA dimer (PA2) = test: DEER of singly labeled peptides in solution (dimerization); format: binding
Protocol: Lyophilized, spin-labeled peptides were dissolved in Milli-Q water and centrifuged at 4000 rpm for 10 min to remove insoluble aggregates. The soluble fractions were used to prepare stock solutions of 250–500 μM peptide. Labeled peptide concentrations were determined by comparing the area under the curve of the EPR signal against that of standard solutions of 10–285 μM TEMPO. For the EPR measurements in D2O, 200 μL of the stock solution was lyophilized and re-dissolved in D2O. The concentration of the unlabeled peptide stock solutions was determined using the bicinchoninic acid assay (Thermo Fisher Scientific) and ranged from 0.8 to 1.2 mM peptide. […]
Pulse EPR measurements were carried out at the W band (94.9 GHz) on a home-built spectrometer at 25 K.[22]−[24] Echo intensities were measured with a Hahn echo sequence (π/2νobs – τ – πνobs – τ – echo) using π/2 and π pulses of 20–25 ns and 40–50 ns, respectively, and τ = 500 ns. Echo decays were measured under the same conditions with an initial τ value of 500 ns. DEER measurements were recorded using the four-pulse DEER sequence (π/2νobs – τ1 – πνobs – (τ1 + t) – πνpump – (τ2-t) – πνobs – τ2 – echo)[25],[26] with a chirp pump pulse[23] using eight-step phase cycling and monitoring the echo intensity as a function of increasing t. […]

polyU = test: Coacervate (droplet) formation with polyU, optical microscopy; format: physicochemical; details: for coacervate formation with polyU: 150 μM, 50 mM MES pH 5.6
Protocol: Optical microscopy images of phase-separated samples were taken at the de Picciotto Cancer Cell Observatory Life Sciences Core Facilities (Weizmann Institute of Science) using a 100× objective (oil immersion) on a Leica DMI8 microscope with differential interface contrast. We used 1–2 μL of the sample to make a small drop in an imaging chamber produced by attaching a coverslip to a clean glass slide using a thin strip of double-sided tape (AJ Sign World). Images were processed using the software package Fiji (NIH).
Lyophilized, spin-labeled peptides were dissolved in Milli-Q water and centrifuged at 4000 rpm for 10 min to remove insoluble aggregates. The soluble fractions were used to prepare stock solutions of 250–500 μM peptide. Labeled peptide concentrations were determined by comparing the area under the curve of the EPR signal against that of standard solutions of 10–285 μM TEMPO. For the EPR measurements in D2O, 200 μL of the stock solution was lyophilized and re-dissolved in D2O. The concentration of the unlabeled peptide stock solutions was determined using the bicinchoninic acid assay (Thermo Fisher Scientific) and ranged from 0.8 to 1.2 mM peptide. A stock solution of 500 mM MES, pH 5.6 was used to adjust all samples to a final concentration of 50 mM MES, pH 5.6. Aliquots of 10 mg/mL polyuridylic acid (polyU; Sigma Aldrich) were prepared in Milli-Q water and diluted as necessary. For CW-EPR measurements, a quartz capillary of 0.6 mm i.d. and 0.84 mm o.d. was filled with 7–8 μL of the sample and sealed with Critoseal (Fisherbrand, Fisher Scientific) at one end. A single capillary was placed in an X-band EPR tube of 2 mm i.d. and 2.4 mm o.d. for measurements, except for spin concentration below 50 μM, where two capillaries were used.
Each sample was freshly prepared and the time to collect […] CW-EPR data was 30–40 min.

droplet formation with polyU (polyU; 50 μM PA-12 and above, 1 mg/mL polyU): a significant number of droplets
coacervate formation with polyU (polyU; 0.35 or 0.5 mg/mL polyU): only a few tiny droplets were observed
coacervate formation with polyU (polyU; 1 or 2 mg/mL polyU): readily form coacervates
Sequence: RIRRASVEELTCVPGIGPRLARRILERLA [PA-12, Precursor-Arg peptide in which position 12 has been modified with a cysteine and attached to an M-TEMPO spin label]
DEER modulation depth (Δ) (PA dimer (PA2); 30 μM, without polyU): 2%
inter-monomer distances upon spin dilution (PA dimer (PA2); about 10% spin-labeled peptide, 200 μM total PA): inter-monomer distances practically disappear
